This note sets out measurements from patent US9855280B2, “Nanoparticles containing azolium and N-heterocyclic carbene compounds and use thereof” (National Dong Hwa University, priority 2015, dated 2018).

Read-outs that look alike come from different tables or passages of the source.

The test system of one series is nine cancer cell lines. As to the kind of experiment: In vitro cytotoxicity across the panel of cancer cell lines. It is filed as cell-based, human. From the text: (§1) Nine human cancerous cell lines, included human acute monocytic leukemia cell line (THP-1), human chronic myelogenous leukemia cell (K562), human acute lymphoblastic leukemia cell (CEM), human liver cancer cell line (HepG2), human colon cancer cell line (HT-29), human lung cancer cell line (H460), human breast cancer cell line (Hs578), human tongue squamous carcinoma (SAS), and human neuroblastoma cell line (SH—SY5Y) were purchased from the Bioresource Collection and Research Center (BCRC, Taiwan). A normal splenocyte is a primary cell acquired from the mouse spleen as a normal tissue cells to compare with nine cancer cell lines. They were cultured in either RPMI or DMEM (Gibco, CA, U.S.A) based media containing 2 mM L-glutamine, 1 mM sodium pyruvate, 50U/ml penicillin/50 μg/ml streptomycin (Gibco, CA, USA). and 10% fetal bovine serum ([…], HyClone Laboratories Inc., Logan, Utah, USA) at 37° C. with 5% CO2 supplied.
(§2) Cancer cells were seeded into 96-well plate at a starting density 8-10×10^3 cells/well. After overnight culture, [C16,TEGQ-Im]Cl, [C16,TEGQ-Imy)2Au]Cl, and AuNPs-B were added at various concentrations and duration times. […] The proliferation of the cells was measured at 72 h by the MTT method. The cell viability was examined using Ethidium bromide/Acride orange vital stain to exclude the dead cells and normalized the number of living cells to the total counted cells. […]

In series [1] the test system is THP-1 human acute monocytic leukemia cell line. As to the kind of experiment: Cell proliferation (MTT) cytotoxicity, THP-1. Particulars: THP-1, 72 h. It is filed as cell-based.
Excerpt: as §1, §2

In series [2] the test system is K562 human chronic myelogenous leukemia cell. As to the kind of experiment: Cell proliferation (MTT) cytotoxicity, K562. It is filed as cell-based. As to conditions: K562, 72 h.
Excerpt: as §1
(§3) Cancer cells were seeded into 96-well plate at a starting density 8-10×10^3 cells/well. After overnight culture, [C16,TEGQ-Im]Cl, [C16,TEGQ-Imy)2Au]Cl, and AuNPs-B were added at various concentrations and duration times. Cisplantin of same concentration was added in the same plate as positive control (Sigma-Aldrich, St. Louis, Mo., USA). The proliferation of the cells was measured at 72 h by the MTT method. The cell viability was examined using Ethidium bromide/Acride orange vital stain to exclude the dead cells and normalized the number of living cells to the total counted cells. […] All experiments were performed in triplicate to calculate the experimental averages and standard deviations. […]

In series [3] the test system is HT-29 human colon cancer cell line. In words: Cell proliferation (MTT) cytotoxicity, HT-29. Particulars: HT-29, 72 h. It is filed as cell-based.
Excerpt: as §1, §3

Series [4] has as its system splenocyte, primary cell acquired from the mouse spleen. In words: Cell proliferation (MTT) cytotoxicity, normal splenocyte. It is filed as cell-based. Particulars: 72 h.
Excerpt: as §1, §3

Series [5] has as its system HepG2 human liver cancer cell line. In words: Cell proliferation (MTT) cytotoxicity, HepG2. It is filed as cell-based. Particulars: HepG2, 72 h.
Excerpt: as §1, §3

The subject of series [6] is H460 human lung cancer cell line. In words: Cell proliferation (MTT) cytotoxicity, H460. It is filed as cell-based.
Excerpt: as §1, §3

Series [7] deals with SAS human tongue squamous carcinoma. As to the kind of experiment: Cell proliferation (MTT) cytotoxicity, SAS. It is filed as cell-based. As to conditions: 72 h.
Excerpt: as §1, §3

Series [8] has as its system SH-SY5Y human neuroblastoma cell line. As to the kind of experiment: Cell proliferation (MTT) cytotoxicity, SH-SY5Y. It is filed as cell-based. Particulars: 72 h.
Excerpt: as §1, §3

In series [9] the test system is Hs578T human breast cancer cell line. As to the kind of experiment: Cell proliferation (MTT) cytotoxicity, Hs578T. It is filed as cell-based. Particulars: 72 h.
Excerpt: as §1, §3

For series [10], the system named is CEM human acute lymphoblastic leukemia cell. In words: Cell proliferation (MTT) cytotoxicity, CEM. It is filed as cell-based. As to conditions: 72 h.
Excerpt: as §1, §2

The nature of the next series: Solubility in water. It is filed as physicochemical.

For `CCCCCCCCCCCCCCCCn1cc[n+](CCOCCOCCOc2cccc3cccnc23)c1.[Cl-]` [[C16,TEGQ-Im]Cl, 3-hexadecyl-1-(2-(2-(2-(quinolin-8-yloxy)ethoxy)ethoxy)ethyl)-imidazolium chloride], the IC50 is 0.22 to 0.89 µg/mL in the series with nine cancer cell lines (Homo sapiens, six cancer cell lines: THP-1, K562, HT-29, Hs578T, SH-SY5Y, SAS, read-out: IC50 values, range over cell lines); 0.37 µg/mL in series [1] (Homo sapiens, read-out: IC50); 0.22 ± 0.03 µg/mL in series [2] (Homo sapiens, read-out: IC50); 0.88 ± 0.11 µg/mL in series [3] (Homo sapiens, read-out: IC50); 3.18 ± 0.76 µg/mL in series [4] (read-out: IC50); 1.69 ± 0.14 µg/mL in series [5] (Homo sapiens, read-out: IC50). Further, the IC50 in series [6] (Homo sapiens, NCI-H460, 72 h, read-out: IC50) worked out at 1.43 ± 0.3 µg/mL; in series [7] (Homo sapiens, read-out: IC50) it was 0.89 ± 0.56 µg/mL; in [8] (Homo sapiens, read-out: IC50), 0.34 µg/mL; in series [9] (Homo sapiens, Hs-578T, read-out: IC50), 0.39 ± 0.05 µg/mL; in series [10] (Homo sapiens, read-out: IC50), 0.67 ± 0.16 µg/mL.

In the case of `CCCCCCCCCCCCCCCCn1cc[n+](CCOCCOCCOc2cccc3cccnc23)[c]1[Au-][c]1n(CCOCCOCCOc2cccc3cccnc23)cc[n+]1CCCCCCCCCCCCCCCC.[Cl-]` [[(C16,TEGQ-Imy)2Au]Cl], the “IC50, range over cell lines” value in the series with nine cancer cell lines (all of the eight cancer cell lines) fell in the range of 2.7 to 29.4 µg/mL. Further, the IC50 in series [1] was 3.37 ± 0.74 µg/mL; in series [2] it was 2.71 ± 0.26 µg/mL; in series [3], 29.41 ± 16.89 µg/mL; in series [4] it was 4.06 ± 1.66 µg/mL; in [5], 7.47 ± 1.53 µg/mL; in series [6] (H460, 72 h) it was 6.64 ± 1.22 µg/mL. The IC50 worked out at 0.74 ± 0.03 µg/mL in series [7], 1.14 ± 0.31 µg/mL in series [8], 0.66 ± 0.14 µg/mL in series [9] and 4.11 ± 0.78 µg/mL in [10]. Further, the “Solubility in water” value in the series “Solubility in water” is “relatively poor solubility in water”.

On to `N.N.[Cl][Pt][Cl]` [Cisplatin, reference compound], for which the IC50 in series [2] was determined as 0.61 µg/mL; in series [3], 2.45 µg/mL; in series [4], 0.71 ± 0.05 µg/mL; in [5], 1.67 ± 0.23 µg/mL; in [6] (H460, 72 h) it was 1.23 ± 0.29 µg/mL; in [7] it was 2.21 µg/mL. The IC50 in series [8] was found to be 0.60 µg/mL; in series [9], 1.73 µg/mL.

Broadly, the IC50 is the point on the concentration scale where inhibition reaches its midpoint.
